Key:
[1] = molecular target: T1, Suppressor of tumorigenicity 14 protein (Homo sapiens, UniProt Q9Y5Y6); experiment: Inhibition of matriptase
T1 sequence (Q9Y5Y6 whole entry): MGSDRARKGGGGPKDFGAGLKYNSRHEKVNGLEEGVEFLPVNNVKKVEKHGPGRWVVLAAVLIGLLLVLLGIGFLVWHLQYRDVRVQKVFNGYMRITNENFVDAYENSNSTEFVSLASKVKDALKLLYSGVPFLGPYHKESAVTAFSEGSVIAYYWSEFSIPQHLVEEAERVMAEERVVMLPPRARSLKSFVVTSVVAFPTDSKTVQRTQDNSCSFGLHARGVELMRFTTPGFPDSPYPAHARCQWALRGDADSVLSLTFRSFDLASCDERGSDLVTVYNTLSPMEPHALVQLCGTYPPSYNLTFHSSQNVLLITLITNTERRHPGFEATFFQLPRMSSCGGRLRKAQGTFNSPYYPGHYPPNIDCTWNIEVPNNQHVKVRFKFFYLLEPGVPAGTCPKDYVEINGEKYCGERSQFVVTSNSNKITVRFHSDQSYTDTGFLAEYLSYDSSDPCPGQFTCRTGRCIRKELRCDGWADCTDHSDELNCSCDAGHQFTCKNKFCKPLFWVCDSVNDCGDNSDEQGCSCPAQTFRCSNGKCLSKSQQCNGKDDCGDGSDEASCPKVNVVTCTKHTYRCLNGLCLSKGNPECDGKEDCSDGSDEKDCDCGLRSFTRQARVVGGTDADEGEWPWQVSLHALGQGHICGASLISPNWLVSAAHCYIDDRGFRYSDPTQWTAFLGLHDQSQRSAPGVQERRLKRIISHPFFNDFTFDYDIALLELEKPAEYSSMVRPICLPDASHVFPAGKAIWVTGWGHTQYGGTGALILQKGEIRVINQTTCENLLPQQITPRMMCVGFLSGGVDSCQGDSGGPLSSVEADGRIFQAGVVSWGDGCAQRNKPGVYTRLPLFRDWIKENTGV

[2] = molecular target: Plasminogen (Homo sapiens, UniProt P00747); experiment: Inhibition of plasmin
[3] = molecular target: Prothrombin (Homo sapiens, UniProt P00734); experiment: Inhibition of thrombin
[4] = molecular target: Coagulation factor X (Homo sapiens, UniProt P00742); experiment: Inhibition of factor 10a
[5] = molecular target: Urokinase-type plasminogen activator (Homo sapiens, UniProt P00749); experiment: Inhibition of uPA

Sequence of Plasminogen (P00747 97-580 limits assumed): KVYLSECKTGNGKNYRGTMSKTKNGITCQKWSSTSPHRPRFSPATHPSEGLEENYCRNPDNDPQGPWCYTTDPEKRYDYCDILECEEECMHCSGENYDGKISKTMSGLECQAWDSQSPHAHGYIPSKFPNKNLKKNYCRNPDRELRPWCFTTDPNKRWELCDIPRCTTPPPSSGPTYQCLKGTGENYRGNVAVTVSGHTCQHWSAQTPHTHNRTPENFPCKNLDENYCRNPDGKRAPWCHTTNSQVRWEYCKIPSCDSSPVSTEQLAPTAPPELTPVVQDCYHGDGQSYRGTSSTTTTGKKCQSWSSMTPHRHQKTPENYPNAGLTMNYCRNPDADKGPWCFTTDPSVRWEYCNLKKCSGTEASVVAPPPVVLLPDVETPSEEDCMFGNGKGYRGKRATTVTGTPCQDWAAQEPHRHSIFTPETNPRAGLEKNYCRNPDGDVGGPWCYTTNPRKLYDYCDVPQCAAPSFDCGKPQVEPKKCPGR
Sequence of Plasminogen (P00747 581-810 limits assumed): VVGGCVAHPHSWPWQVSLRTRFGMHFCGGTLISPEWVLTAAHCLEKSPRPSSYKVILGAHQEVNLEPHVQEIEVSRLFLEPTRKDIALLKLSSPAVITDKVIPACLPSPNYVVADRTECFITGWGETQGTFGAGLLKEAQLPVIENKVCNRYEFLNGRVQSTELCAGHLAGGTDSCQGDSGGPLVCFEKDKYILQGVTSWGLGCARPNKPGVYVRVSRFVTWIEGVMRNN
Sequence of Coagulation factor X (P00742 41-179 limits assumed): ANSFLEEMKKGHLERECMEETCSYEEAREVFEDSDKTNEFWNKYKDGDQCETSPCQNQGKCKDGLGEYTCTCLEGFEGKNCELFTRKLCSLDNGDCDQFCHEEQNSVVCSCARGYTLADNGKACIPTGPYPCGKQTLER
Sequence of Coagulation factor X (P00742 235-488 limits assumed): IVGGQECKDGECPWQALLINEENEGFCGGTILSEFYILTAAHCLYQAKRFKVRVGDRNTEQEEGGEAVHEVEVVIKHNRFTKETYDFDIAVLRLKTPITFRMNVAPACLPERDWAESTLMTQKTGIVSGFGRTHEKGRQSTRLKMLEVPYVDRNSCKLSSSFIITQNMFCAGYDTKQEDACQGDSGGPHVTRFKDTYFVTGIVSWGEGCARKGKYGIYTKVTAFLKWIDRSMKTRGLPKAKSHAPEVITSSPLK

| SMILES | Ki [1] | Ki [2] | Ki [3] | Ki [4] | Ki [5] |
| --- | --- | --- | --- | --- | --- |
| N=C(N)c1cccc(C[C@H](NS(=O)(=O)c2cccc(NC(=O)CCN)c2)C(=O)N2CCC(CCN)CC2)c1 | 0.0038 µM |  |  |  |  |
| NCCC(=O)Nc1cccc(S(=O)(=O)N[C@@H](CCc2ccccc2)C(=O)N2CCC(CCN)CC2)c1 | > 1000 µM |  |  |  |  |
| NCCC(=O)Nc1cccc(S(=O)(=O)N[C@@H](Cc2cccc(CN)c2)C(=O)N2CCC(CCN)CC2)c1 |  | 16 µM | > 1000 µM | 92 µM | > 1000 µM |
| N=C(N)c1cccc(C[C@H](NS(=O)(=O)c2cccc(-c3ccc(N)nc3)c2)C(=O)N2CCC(CCN)CC2)c1 | 0.0016 µM | 0.23 µM | 0.11 µM | 0.25 µM | 3.6 µM |
| CCC(=O)Nc1cccc(S(=O)(=O)N[C@@H](Cc2cccc(C(=N)N)c2)C(=O)N2CCC(CCN)CC2)c1 | 0.18 µM | 3.5 µM | 1.9 µM | 20 µM | 8.1 µM |
| CCOC(=O)Nc1cccc(S(=O)(=O)N[C@@H](Cc2cccc(C(=N)N)c2)C(=O)N2CCC(CCN)CC2)c1 | 0.041 µM | 2.1 µM | 1.2 µM | 14 µM | 3.2 µM |
| N=C(N)c1cccc(C[C@H](NS(=O)(=O)c2cccc(NC(=O)C3CNC3)c2)C(=O)N2CCC(CCN)CC2)c1 | 0.003 µM | 0.5 µM | 5.1 µM | 11.2 µM | 3.7 µM |
| NCCC(=O)Nc1cccc(S(=O)(=O)N[C@@H](Cc2ccc(CN)cc2)C(=O)N2CCC(CCN)CC2)c1 | 2.8 µM | 64.8 µM | 325 µM | 430 µM | > 1000 µM |
| N=C(N)c1cccc(C[C@H](NS(=O)(=O)c2cccc(CCCCN)c2)C(=O)N2CCC(CCN)CC2)c1 | 0.001 µM | 0.2 µM | 0.46 µM | 4.4 µM | 3.8 µM |
| N=C(N)c1cccc(C[C@H](NS(=O)(=O)c2cccc(C3CCC(N)=NC3)c2)C(=O)N2CCC(CCN)CC2)c1 (stereo partly specified) | 8e-05 µM | 0.028 µM | 0.52 µM | 0.01 µM | 6.6 µM |
| N=C(N)c1cccc(C[C@H](NS(=O)(=O)c2cccc(NCCCN)c2)C(=O)N2CCC(CCN)CC2)c1 | 0.0067 µM | 0.46 µM | 2.2 µM | 8 µM | 5.2 µM |
| Cc1nccc(-c2cccc(S(=O)(=O)N[C@@H](Cc3cccc(C(=N)N)c3)C(=O)N3CCC(CCN)CC3)c2)n1 |  | 0.21 µM | 0.31 µM | 1.7 µM | 8.7 µM |
| N=C(N)c1cccc(C[C@H](NS(=O)(=O)c2cccc(NC(=O)CCO)c2)C(=O)N2CCC(CCN)CC2)c1 |  | 2.6 µM | 5.5 µM | 61 µM | 3 µM |
| NCCC(=O)Nc1cccc(S(=O)(=O)N[C@@H](Cc2ccccc2)C(=O)N2CCC(CCN)CC2)c1 | 10 µM |  |  |  |  |
| NCCC(=O)Nc1cccc(S(=O)(=O)N[C@@H](CCCc2ccccc2)C(=O)N2CCC(CCN)CC2)c1 | > 1000 µM |  |  |  |  |
| COc1ccc(-c2cccc(S(=O)(=O)NC(Cc3cccc(C(=N)N)c3)C(=O)N3CCC(CCN)CC3)c2)cc1OC (racemic) |  | 0.23 µM | 1.1 µM | 0.42 µM | 14 µM |
| COc1ccc(-c2cccc(S(=O)(=O)NC(Cc3cccc(C(=N)N)c3)C(=O)N3CCC(CCN)CC3)c2)cc1 (racemic) | 0.007 µM | 0.12 µM | 0.04 µM | 0.36 µM | 10 µM |
| CCc1ccc(-c2cccc(S(=O)(=O)NC(Cc3cccc(C(=N)N)c3)C(=O)N3CCC(CCN)CC3)c2)cc1 (racemic) |  | 0.214 µM | 0.033 µM | 0.63 µM | 6.9 µM |
| N=C(N)c1cccc(CC(NS(=O)(=O)c2cccc(-c3ccccc3)c2)C(=O)N2CCC(CCN)CC2)c1 (racemic) | 0.11 µM | 0.55 µM | 0.056 µM | 5.4 µM | 8.3 µM |
| COc1ccc(-c2cccc(S(=O)(=O)NC(Cc3cccc(CN)c3)C(=O)N3CCC(CCN)CC3)c2)cc1 (racemic) |  | 0.776 µM | 9.8 µM | 55 µM | 129 µM |
| N=C(N)c1cccc(CC(NS(=O)(=O)c2cccc(-c3cccc(Cl)c3)c2)C(=O)N2CCC(CCN)CC2)c1 (racemic) |  | 0.334 µM | 0.051 µM | 5.6 µM | 12 µM |
| N=C(N)c1cccc(CC(NS(=O)(=O)c2cccc(-c3ccncc3)c2)C(=O)N2CCC(CCN)CC2)c1 (racemic) |  | 0.11 µM | 0.16 µM | 1.6 µM | 3.7 µM |
| N=C(N)c1cccc(CC(NS(=O)(=O)c2cccc(-c3cccnc3)c2)C(=O)N2CCC(CCN)CC2)c1 (racemic) |  | 1 µM | 0.15 µM | 3.5 µM | 11 µM |
| CC(C)Oc1ccc(-c2cccc(S(=O)(=O)NC(Cc3cccc(C(=N)N)c3)C(=O)N3CCC(CCN)CC3)c2)cc1 (racemic) |  | 0.08 µM | 0.24 µM | 3.4 µM | 9.6 µM |
| N=C(N)c1cccc(CC(NS(=O)(=O)c2cccc(-c3ccc4[nH]ccc4c3)c2)C(=O)N2CCC(CCN)CC2)c1 (racemic) |  | 0.38 µM | 0.19 µM | 0.15 µM | 6.2 µM |
| N=C(N)c1cccc(CC(NS(=O)(=O)c2cccc(-c3ccccc3Cl)c2)C(=O)N2CCC(CCN)CC2)c1 (racemic) |  | 0.085 µM | 0.011 µM | 0.7 µM | 12 µM |
| N=C(N)c1cccc(CC(NS(=O)(=O)c2cccc(-c3ccc(Cl)cc3)c2)C(=O)N2CCC(CCN)CC2)c1 (racemic) |  | 0.183 µM | 0.01 µM | 0.91 µM | 11 µM |
| CCOc1ccc(-c2cccc(S(=O)(=O)NC(Cc3cccc(C(=N)N)c3)C(=O)N3CCC(CCN)CC3)c2)cc1 (racemic) | 0.006 µM | 0.15 µM | 0.45 µM | 0.66 µM | 8.6 µM |

From ChEMBL document CHEMBL1139302, “Modification of the N-terminal sulfonyl residue in 3-amidinophenylalanine-based matriptase inhibitors” (Bioorg Med Chem Lett, 2009)
